# Laboratory results reported in US9617212B2, “Isoindolin-1-ones as macrophage migration inhibitory factor (MIF) inhibitors” (Controlled Chemicals, Inc., priority 2013, dated 2017).
# Molecular target: T1, Human MIF (MIF tautomerase) (Homo sapiens, UniProt P14174)
# T1 construct: purchased ProSpec
# T1 sequence (P14174 2-115 limits assumed): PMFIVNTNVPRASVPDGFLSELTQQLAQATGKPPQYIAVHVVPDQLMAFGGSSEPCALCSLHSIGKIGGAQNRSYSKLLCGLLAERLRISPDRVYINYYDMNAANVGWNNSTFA
# Experiment: MIF Tautomerase Inhibitory Assay with L-Dopachrome Methyl Ester
# Assay type: biochemical
# Conditions: relative potency class, MIF tautomerase inhibition; L-dopachrome methyl ester substrate, pH 7.34, no pre-incubation; read-out: IC50
# Experimental: MIF Tautomerase Inhibitory Assay with L-Dopachrome Methyl Ester
# Assay Method (pH 7.34, 0.017-0.033% DMSO, 0.034% EtOH): A fresh stock solution of L-dopachrome methyl ester in MeOH was prepared at 55-65 mM through oxidation of L-3,4-dihydroxyphenylalanine methyl ester hydrochloride with sodium periodate according to the procedure described in WO9729635A1. MeOH was removed from 0.5 mL of the L-dopachrome methyl ester/MeOH solution (55-65 mM) under a stream of argon and the residue taken up in appropriate amount of water to prepare a substrate solution (7-10 mM). Active Human MIF (from ProSpec) ([…]) was dissolved in 675 μL 0.1% bovine serum albumin (BSA) in water, and the resultant MIF solution (1 volume) mixed with 55 volumes of Na2HPO4 buffer (50 mM, pH 7.34) to form a 265 ng/mL MIF working solution. MIF working solution (280 μL) or a no-MIF working solution (prepared by mixing 0.1% BSA (1 volume) with the aforementioned Na2HPO4 buffer (55 volumes)) was transferred to wells in a column of 8 wells on a 96-well plate in a Plate Reader (SPECTRAmax Plus 384, Molecular Devices), and 5 μL of H2O/DMSO (99/1) containing no inhibitor or an inhibitor (whose concentration was verified by HPLC). Without pre-mixing or pre-incubation, 10 μL freshly prepared L-dopachrome methyl ester/H2O solution (7-10 mM) was added to each well with a multi-pipet. The assay samples were mixed immediately by sucking up and expelling the contents of the wells three times with a multi-pipet. The absorbance (A1) at 475 nm was then recorded for each sample every 2 s for 3 min. After 5-6 min, the samples were monitored again for 3 min with a reading every two seconds at 475 nm (A2). It can be shown that when [substrate]<<Km, plots of Ln(A1−A2) versus time are linear with slopes m (Eq 1). IC50 values were estimated from Eq 2-5, the inhibitor concentration [I] in the assay mixture and values of m in the presence (mi), absence (mo) of the inhibitor, the value of m observed for the non-MIF blank (mn), the MIF concentration (e), and the specificity constant for the MIF catalyzed reaction (kcat/Km). Ln(A1−A2)=−mt (Eq 1) F=(mi−mn)/(mo−mn) (Eq 2) Wherein mo−mn=ekcat/Km (Eq 3) and mi−mn=(ekcat/Km)[…] (Eq 4) IC50=[I]F/(1−F) (Eq 5)
# The compounds listed in Table 1, provided herein, were prepared via procedures identical or similar to those described in the Examples 1-85. The listed compounds were >95% pure by HPLC. Each listed compound yielded a mass spectrum consistent with its structure. Concentrations of MIF tautomerase inhibitors used in the assay were verified by HPLC and the extinction coefficients of the inhibitors. The designated relative potency of MIF tautomerase inhibitors is based on the IC50 as determined by the method described in Biochemical Assay as follows: A, IC50<1 μM; B, 1 μM≦IC50<5 μM; C, 5 μM≦IC50<10 μM; D, 10 μM≦IC50<50 μM; E, 50 μM≦IC50<200 μM.
row,Compound,IC50 [nM]
1,O=C1c2cc(O)ccc2CN1CC1CCC(O)CC1 (centres unmarked),1000 to 5000
2,CC([C@H]1CC[C@H](CN2Cc3ccc(O)c(F)c3C2=O)CC1)N1CCOCC1 (some centres unmarked),< 1000
3,CCC(Oc1cccc(F)c1)[C@H]1CC[C@H](CN2Cc3ccc(O)cc3C2=O)CC1 (some centres unmarked),< 1000
4,O=C1c2cc(O)ccc2CN1C[C@H]1CC[C@H](C(=O)OC2CCCCCC2)CC1,5000 to 10000
5,CC(=O)N(C)CCOc1cccc(OC(C)[C@H]2CC[C@H](CN3Cc4ccc(O)c(F)c4C3=O)CC2)c1 (some centres unmarked),< 1000
6,CC(C)(C)COC(=O)[C@H]1CC[C@H](CN2Cc3ccc(O)cc3C2=O)CC1,< 1000
7,O=C1c2cc(O)ccc2CN1C[C@H]1CC[C@H](C(O)C2CCCCC2)CC1 (some centres unmarked),< 1000
8,O=C(OC1CCCC1)C1CCC(CCN2Cc3ccc(O)cc3C2=O)CC1 (centres unmarked) [drawing 138],1000 to 5000
9,C[C@@H](O)[C@H]1CC[C@H](CN2Cc3ccc(O)c(F)c3C2=O)CC1,< 1000
10,CC1CCCCC1N1Cc2ccc(O)cc2C1=O (centres unmarked),10000 to 50000
11,CC(O)[C@H]1CC[C@H](CN2Cc3cc(F)c(O)cc3C2=O)CC1 (some centres unmarked),< 1000
12,"COC(=O)[C@H](C)NC(C)[C@H]1CC[C@H](CN2Cc3ccc(O)c(F)c3C2=O)CC1 (single isomer, unassigned)",< 1000
13,O=C1c2cc(O)ccc2CN1Cc1ccccc1,10000 to 50000
14,O=C1c2cc(O)ccc2CN1C[C@H]1CC[C@H](COC2CCCCC2)CC1,1000 to 5000
15,CC(C)C[C@@H](NC(C)C1CCC(CN2Cc3ccc(O)c(F)c3C2=O)CC1)C(=O)O (some centres unmarked) [drawing 104],< 1000
16,C[C@H](O)[C@H]1CC[C@H](CN2Cc3ccc(O)c(F)c3C2=O)CC1,< 1000
17,CC(N[C@H](CO)C(=O)O)C1CCC(CN2Cc3ccc(O)c(F)c3C2=O)CC1 (some centres unmarked),< 1000
18,O=C(OC1CCCCC1)c1ccc(CN2Cc3ccc(O)cc3C2=O)cc1,10000 to 50000
19,CC(OC(=O)c1ccccc1)[C@H]1CC[C@H](CN2Cc3ccc(O)c(F)c3C2=O)CC1 (some centres unmarked),< 1000
20,CC(Oc1cccc(F)c1)[C@H]1CC[C@H](CN2Cc3ccc(O)c(F)c3C2=O)CC1 (some centres unmarked),< 1000
21,CC(Oc1cccc(OCCN)c1)[C@H]1CC[C@H](CN2Cc3ccc(O)c(F)c3C2=O)CC1 (some centres unmarked),< 1000
22,"COC(=O)[C@@H](CO)NC(C)[C@H]1CC[C@H](CN2Cc3ccc(O)c(F)c3C2=O)CC1 (single isomer, unassigned)",< 1000
23,CNC(=O)[C@H]1CC[C@H](CN2Cc3ccc(O)cc3C2=O)CC1,1000 to 5000
24,"CC(N[C@H](C)C(=O)O)[C@H]1CC[C@H](CN2Cc3ccc(O)c(F)c3C2=O)CC1 (single isomer, unassigned)",< 1000

row,Compound,IC50 [nM]
1,"COC(=O)[C@H](NC(C)[C@H]1CC[C@H](CN2Cc3ccc(O)c(F)c3C2=O)CC1)C(C)C (single isomer, unassigned)",< 1000
2,O=C1c2cc(O)ccc2CN1C[C@H]1CC[C@H](COc2cccc(F)c2)CC1,< 1000
3,CC(C)C[C@@H](NC(C)C1CCC(CN2Cc3ccc(O)c(F)c3C2=O)CC1)C(=O)O (some centres unmarked) [drawing 107],< 1000
4,O=C(OC1CCCC1)C1CCC(CCN2Cc3ccc(O)cc3C2=O)CC1 (centres unmarked) [drawing 139],1000 to 5000
5,O=C1c2cc(O)ccc2CN1C[C@H]1CC[C@H](C(O)CC2CCCCC2)CC1 (some centres unmarked),< 1000
6,O=C1c2cc(O)ccc2CN1C[C@H]1CC[C@H](C(=O)N2CCOCC2)CC1,1000 to 5000
7,CC(=O)[C@H]1CC[C@H](CN2Cc3ccc(O)c(F)c3C2=O)CC1,< 1000
8,CC(=O)N[C@@H](COc1cccc(OC(C)[C@H]2CC[C@H](CN3Cc4ccc(O)c(F)c4C3=O)CC2)c1)C(=O)O (some centres unmarked),< 1000
9,CC(C)CNC(C)[C@H]1CC[C@H](CN2Cc3ccc(O)cc3C2=O)CC1 (some centres unmarked),1000 to 5000
10,O=C1OCc2cc(OC[C@H]3CC[C@H](CN4Cc5ccc(O)cc5C4=O)CC3)ccc21,1000 to 5000
11,O=C1c2cc(O)ccc2CN1CCc1cccc(O)c1,1000 to 5000
12,CC(NCCC(=O)O)C1CCC(CN2Cc3ccc(O)c(F)c3C2=O)CC1 (centres unmarked),< 1000
13,O=C1c2cc(O)ccc2CN1[C@H](CO)C1CCCCC1,10000 to 50000
14,CCC(O)[C@H]1CC[C@H](CN2Cc3ccc(O)c(F)c3C2=O)CC1 (some centres unmarked),< 1000
15,CC(OC(=O)CCC(=O)O)[C@H]1CC[C@H](CN2Cc3ccc(O)c(F)c3C2=O)CC1 (some centres unmarked),< 1000
16,COc1cccc(OC[C@H]2CC[C@H](CN3Cc4ccc(O)cc4C3=O)CC2)c1,< 1000
17,CC(C)[C@@H](CO)NC(C)[C@H]1CC[C@H](CN2Cc3ccc(O)cc3C2=O)CC1 (some centres unmarked) [drawing 150],1000 to 5000
18,CC(NCC(N)=O)[C@H]1CC[C@H](CN2Cc3ccc(O)c(F)c3C2=O)CC1 (some centres unmarked),< 1000
19,CC(Oc1cccc(F)c1)[C@H]1CC[C@H](CN2Cc3cc(F)c(O)cc3C2=O)CC1 (mixture of isomers) [drawing 63],< 1000
20,COC(=O)[C@@H](CO)NC(C)C1CCC(CN2Cc3ccc(O)c(F)c3C2=O)CC1 (some centres unmarked),< 1000
21,CC(N)[C@H]1CC[C@H](CN2Cc3ccc(O)c(F)c3C2=O)CC1 (some centres unmarked),< 1000
22,CC(C)(O)[C@H]1CC[C@H](CN2Cc3ccc(O)c(F)c3C2=O)CC1,< 1000
23,O=C1c2cc(O)ccc2CN1C[C@H]1CC[C@H](COc2cccc(O)c2)CC1,< 1000

# Second part, the compound after the results:
row,IC50 [nM],Compound
1,< 1000,CC(Oc1cccc(F)c1)[C@H]1CC[C@H](CN2Cc3cc(F)c(O)cc3C2=O)CC1 (mixture of isomers) [drawing 62]
2,< 1000,COC(=O)[C@H]1CC[C@H](CN2Cc3ccc(O)cc3C2=O)CC1
3,< 1000,O=C1c2cc(O)ccc2CN1C[C@H]1CC[C@H](COc2ccc(F)cc2)CC1
4,< 1000,O=C1c2cc(O)ccc2CN1C[C@H]1CC[C@H](COc2ccccc2F)CC1
5,< 1000,CCC(Oc1cccc(OC)c1)[C@H]1CC[C@H](CN2Cc3ccc(O)c(F)c3C2=O)CC1 (some centres unmarked)
6,5000 to 10000,O=C1c2cc(O)ccc2CN1C1CCCCC1
7,1000 to 5000,O=C1c2cc(O)ccc2CN1C[C@H]1CC[C@H](C(=O)OC2CCCCC2)CC1
8,< 1000,O=C1c2cc(O)ccc2CN1C[C@H]1CC[C@H](COc2ccccc2)CC1
9,< 1000,CC(Oc1cccc(F)c1)[C@H]1CC[C@H](CN2Cc3ccc(O)cc3C2=O)CC1 (some centres unmarked)
10,< 1000,CC(N[C@H](C)C(=O)O)C1CCC(CN2Cc3ccc(O)c(F)c3C2=O)CC1 (some centres unmarked)
11,5000 to 10000,O=C1c2cc(O)ccc2CN1CCc1ccccc1
12,1000 to 5000,O=C(OC1CCCCC1)c1ccc(CCN2Cc3ccc(O)cc3C2=O)cc1
13,10000 to 50000,O=C1c2cc(O)ccc2CN1[C@@H](CO)C1CCCCC1
14,< 1000,CNCCOc1cccc(OC(C)[C@H]2CC[C@H](CN3Cc4ccc(O)c(F)c4C3=O)CC2)c1 (some centres unmarked)
15,50000 to 200000,CCOC(=O)CN1Cc2ccc(O)cc2C1=O
16,< 1000,CC(O)[C@H]1CC[C@H](CN2Cc3ccc(O)c(F)c3C2=O)CC1 (some centres unmarked)
17,< 1000,COC(=O)CCNC(C)C1CCC(CN2Cc3ccc(O)c(F)c3C2=O)CC1 (centres unmarked)
18,1000 to 5000,CC(N)[C@H]1CC[C@H](CN2Cc3cc(Cl)c(O)c(F)c3C2=O)CC1 (some centres unmarked)
19,1000 to 5000,O=C1OCc2c(OC[C@H]3CC[C@H](CN4Cc5ccc(O)cc5C4=O)CC3)cccc21
20,< 1000,CCOC(CCC1CCCCC1)[C@H]1CC[C@H](CN2Cc3ccc(O)cc3C2=O)CC1 (some centres unmarked)
21,< 1000,CNC(=O)[C@H](Cc1ccccc1)NC(C)C1CCC(CN2Cc3ccc(O)c(F)c3C2=O)CC1 (some centres unmarked) [drawing 100]
